# Assay results from patent publication US20200002354A1, “HEXAHYDROPYRAZINOBENZ- OR -PYRIDO-OXAZEPINES CARRYING AN OXYGEN-CONTAINING SUBSTITUENT AND USE THEREOF IN THE TREATMENT OF 5-HT2C-DEPENDENT DISORDERS” (AbbVie Deutschland GmbH & Co. KG, priority 2015, published 2020).
# What was measured:
# 5-HT2C receptor = target: T1, 5-HT2C receptor (Homo sapiens, UniProt P28335); assay: Human 5-HT2C functional assay (beta-arrestin2 recruitment, U2OS_HTR2C_β-Arrestin cells); assay type: cell-based; conditions: for EC50: Potency (EC50 5-HT2C) in functional assay, agonism, read-out: EC50 5-HT2C; for Emax: relative efficacy vs maximal effect induced by 5-HT (defined as 100%)
# T1 construct: host or cells: U2OS
# Experimental: 1. Human 5-HT2C Functional Assay
# The functional activity of compounds of formula I was assayed by incubation with U2OS_HTR2C_β-Arrestin cells (DiscoverX, 93-0289C3) to induce beta-arrestin2 recruitment to the 5-HT2C receptor. The agonist-induced recruitment and proximity of the receptor and beta-arrestin2 leads to complementation and formation of active β-galactosidase. The enzyme complementation results in enzyme activity, which is measured following the termination of the agonist incubation using DiscoveRx's detection reagent, which contains a chemiluminescent substrate which produces a high intensity signal. Cells were plated and a medium-change to a 1% serum containing medium was performed 24 h later. The next day, test compounds were added and incubated for 1.5 h before addition of detection reagent.
# The response produced was measured and compared with the response produced by 10 [mu]M 5-HT or the maximal effect induced by 5-HT (defined as 100%) to which it was expressed as a percentage response (relative efficacy).
# human 5-HT2A receptor = target: T2, human 5-HT2A receptor (Homo sapiens, UniProt P28223); assay: Human 5-HT2A functional assay (calcium mobilisation in CHO-K1 cells, FLIPR); assay type: cell-based; conditions: based on agonism: EC50 5-HT2A/EC50 5-HT2C
# T2 construct: expressed in transfected cells; host or cells: CHO-K1
# Experimental: 2. Human 5-HT2A Functional Assay
# Functional activity on the 5-HT2A receptor was determined by testing the effect of the compounds I on calcium mobilisation in CHO-K1 cells, stably transfected with human 5-HT2A receptor. Cells were seeded into sterile black 384-well plates with clear bottom at 25,000 cells/well in a volume of 25 μl and grown for 5-6 hours at 37° C., in 5% CO2 in tissue culture medium (“Ultra CHO” by LONZA), containing 1% dialysed FCS and 50 μg/ml gentamicin (Invitrogen). After this incubation, medium was replaced by a serum free version of the same tissue culture medium followed by incubation overnight at 37° C. and in 5% CO2. Cells were then loaded with a fluorescent calcium-sensitive dye in the presence of 0.07% probenecid for an hour at 37° C., according to the manufacturer's protocol (Ca5-Assay Kit, Molecular Devices), followed by an additional 60 min incubation at room temperature. Serial compound dilutions (final concentrations of 10^−10 to 10^−5M, prepared in HBSS+50 mM HEPES) were first added to the cells alone (“first addition” to assess agonism on the 5-HT2A receptor), then after 8 min, serotonin was added to the same wells at a final concentration of 3×10^−8 M (“second addition” to see potential antagonistic effect) and the maximal calcium response was determined using a FLIPR® Tetra instrument (Molecular Devices) in each of the two steps. The relative efficacy of the compounds was calculated as a percentage of the maximal effect induced by serotonin alone (defined as 100%). To determine EC50/IC50 values, concentration-response curves were fitted using a four-parameter logistic equation (IDBS Biobookml). Kb values were calculated from IC50 values, according to Cheng & Prusoff
# human 5-HT2B receptor = target: T3, human 5-HT2B receptor (Homo sapiens, UniProt P41595); assay: Human 5-HT2B functional assay (calcium mobilisation in CHO-FlpIn cells, FLIPR); assay type: cell-based; conditions: based on agonism: EC50 5-HT2B/EC50 5-HT2C
# T3 construct: expressed in transfected cells; host or cells: CHO-FlpIn
# Experimental: 3. Human 5-HT2B Functional Assay
# Functional activity on the 5-HT2B receptor was determined by testing the effect of the compounds I on calcium mobilisation in CHO-FlpIn cells, stably transfected with human 5-HT2B receptor. Cells were seeded into sterile black 384-well plates with clear bottom at 30,000 cells/well in a volume of 25 μl and grown overnight at 37° C., in 5% CO2 in tissue culture medium (“CHO-S-SFM II” by Invitrogen), containing 1% dialysed FCS and 50 μg/ml gentamicin (Invitrogen). On the next morning, medium was replaced by a serum free version of the same tissue culture medium for a further incubation for 4 hours at 37° C. and in 5% CO2. Cells were then loaded with a fluorescent calcium-sensitive dye in the presence of 0.07% probenecid for an hour at 37° C., according to the manufacturer's protocol (Ca5-Assay Kit, Molecular Devices), followed by an additional 60 min incubation at room temperature. Serial compound dilutions (final concentrations of 10^−10 to 10^−5M, prepared in HBSS+50 mM HEPES) were first added to the cells alone (“first addition” to assess agonism on the 5-HT2B receptor), then after 8 min, serotonin was added to the same wells at a final concentration of 10^−8 M (“second addition” to see potential antagonistic effect) and the maximal calcium response was determined using a FLIPR® Tetra instrument (Molecular Devices) in each of the two steps. The relative efficacy of the compounds was calculated as a percentage of the maximal effect induced by serotonin alone (defined as 100%). To determine EC50/IC50 values, concentration-response curves were fitted using a four-parameter logistic equation (IDBS Biobookml). Kb values were calculated from IC50 values, according to Cheng & Prusoff
# [1] = Metabolic stability in human liver microsomes, unbound intrinsic clearance; assay type: in vitro ADME; conditions: liver microsomes, pH 7.4; unbound intrinsic clearance (human); Clint unbound = Cl int/fu mic; read-out: Cl int, mic unb. (h)
# Experimental: Samples of the tested compounds (0.5 μM) were preincubated together with human liver microsomes (0.25 mg of microsomal protein/mL) in 0.05 M potassium phosphate buffer of pH 7.4 in microtiter plates at 37° C. for 5 minutes. The reaction was started by adding NADPH (1.0 mM). After 0, 5, 10, 15, 20 and 30 minutes, an aliquot was removed, the reaction was cooled and stopped by adding twice the amount of quench solution consisting of acetonitrile/methanol 1:1, and containing 0.2 μM carbutamide as internal standard. The samples were frozen until analyzed. The remaining concentration of undegraded test substance was determined by liquid chromatography-tandem mass spectrometry (LC-MS/MS). The half-life (t1/2) was determined from the gradient of the ratio of the signal of (test substance/internal standard)/unit time plot, allowing the calculation of the half-life of the test substance, assuming first order kinetics, from the decrease in the concentration of the compound with time. The microsomal clearance (mClint) was calculated as follows: mClint=((ln(2)/t ½)/Microsomal Protein Concentration (mg/ml))*1000, leading to the unit of uL/min/mg. The scaled clearance (mClin_scaled) was calculated as mCLint_scaled=m CLint*(Microsomal Yield (mg/kg BW))/1000000*60, leading to the units L/h/kg. The Microsomal Yield is defined by the specifics of the used microsomes. Calculations were modified from references: Di, The Society for Biomolecular Screening, 2003, 453-462; Obach, D M D, 1999 vol 27. N 11, 1350-1359.
# Calculation of Unbound Intrinsic Clearance
# C1int unbound=C1 int/fu mic
# T1 sequence (P28335 33-458): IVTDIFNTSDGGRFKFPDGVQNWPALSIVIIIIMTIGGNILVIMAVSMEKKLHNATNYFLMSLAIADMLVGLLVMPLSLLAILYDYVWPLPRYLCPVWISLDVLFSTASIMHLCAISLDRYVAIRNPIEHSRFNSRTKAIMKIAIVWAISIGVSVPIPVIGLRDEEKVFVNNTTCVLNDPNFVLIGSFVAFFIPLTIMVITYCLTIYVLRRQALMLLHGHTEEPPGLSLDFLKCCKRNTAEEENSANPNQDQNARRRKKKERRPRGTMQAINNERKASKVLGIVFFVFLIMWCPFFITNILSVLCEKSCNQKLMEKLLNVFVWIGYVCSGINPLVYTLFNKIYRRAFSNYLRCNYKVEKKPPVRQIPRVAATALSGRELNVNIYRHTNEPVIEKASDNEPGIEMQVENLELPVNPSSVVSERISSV
# T1 sequence (P32121 whole entry partner): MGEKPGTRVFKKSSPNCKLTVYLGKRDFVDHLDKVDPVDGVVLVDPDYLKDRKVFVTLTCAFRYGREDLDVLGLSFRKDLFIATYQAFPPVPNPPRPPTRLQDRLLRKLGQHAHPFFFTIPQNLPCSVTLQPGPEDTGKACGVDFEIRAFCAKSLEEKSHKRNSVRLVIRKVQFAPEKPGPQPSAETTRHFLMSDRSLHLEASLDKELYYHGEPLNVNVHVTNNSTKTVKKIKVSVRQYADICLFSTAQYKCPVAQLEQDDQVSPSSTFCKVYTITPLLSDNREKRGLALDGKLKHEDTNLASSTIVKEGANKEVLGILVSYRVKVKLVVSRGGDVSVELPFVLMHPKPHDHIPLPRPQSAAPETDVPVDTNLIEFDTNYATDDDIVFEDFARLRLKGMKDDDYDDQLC
# T3 sequence (P41595 whole entry): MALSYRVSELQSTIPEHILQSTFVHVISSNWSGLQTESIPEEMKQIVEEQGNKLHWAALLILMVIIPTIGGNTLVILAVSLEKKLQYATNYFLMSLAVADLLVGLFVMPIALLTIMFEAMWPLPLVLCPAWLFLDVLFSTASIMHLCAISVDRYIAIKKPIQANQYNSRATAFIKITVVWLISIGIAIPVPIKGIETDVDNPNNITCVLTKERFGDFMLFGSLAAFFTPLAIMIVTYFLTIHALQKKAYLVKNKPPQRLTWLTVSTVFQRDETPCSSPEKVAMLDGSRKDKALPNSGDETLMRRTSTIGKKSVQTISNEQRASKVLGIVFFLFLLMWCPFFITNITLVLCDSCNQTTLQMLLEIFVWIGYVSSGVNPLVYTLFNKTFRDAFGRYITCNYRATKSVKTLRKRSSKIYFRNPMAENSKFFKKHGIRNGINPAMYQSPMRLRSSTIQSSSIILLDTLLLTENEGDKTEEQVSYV
# T2 sequence (P28223 whole entry): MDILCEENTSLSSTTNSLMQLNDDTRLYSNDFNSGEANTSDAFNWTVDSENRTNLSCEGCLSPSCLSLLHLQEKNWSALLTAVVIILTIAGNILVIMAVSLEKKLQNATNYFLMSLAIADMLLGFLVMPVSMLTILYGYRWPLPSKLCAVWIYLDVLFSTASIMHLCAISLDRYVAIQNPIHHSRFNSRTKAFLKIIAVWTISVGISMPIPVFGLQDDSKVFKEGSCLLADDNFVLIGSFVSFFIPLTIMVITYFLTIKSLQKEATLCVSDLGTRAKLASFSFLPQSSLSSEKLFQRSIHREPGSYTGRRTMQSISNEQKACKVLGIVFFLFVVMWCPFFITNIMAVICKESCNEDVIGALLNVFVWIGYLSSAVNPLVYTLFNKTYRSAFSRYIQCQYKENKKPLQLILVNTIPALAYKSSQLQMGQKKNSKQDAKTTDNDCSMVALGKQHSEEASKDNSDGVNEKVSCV
SMILES,EC50 (5-HT2C receptor),Emax (5-HT2C receptor),Selectivity over 5-HT2A (human 5-HT2A receptor),Selectivity over 5-HT2B (human 5-HT2B receptor),CLint scaled at 0.5 μM [1]
"COC[C@@H]1C[C@@H]2CNCCN2c2cc(Cl)c(F)cc2O1.Cl [Example 31, (4aR,6S)-10-Chloro-9-fluoro-6-(methoxymethyl)-2,3,4,4a,5,6-hexahydro-1H-pyrazino[2,1-d][1,5]benzoxazepine hydrochloride]",20 to 200 nM,30 to 50%,++ (from >30 to 100),++ (from >30 to 100),< 83.3 mL/min/kg
"Cl.Fc1cc(Cl)c2c(c1)N1CCNC[C@H]1C[C@@H](COC(F)F)O2 [Example 24, (4aR,6S)-8-Chloro-6-(difluoromethoxymethyl)-10-fluoro-2,3,4,4a,5,6-hexahydro-1H-pyrazino[2,1-d][1,5]benzoxazepine hydrochloride]",20 to 200 nM,50 to 70%,+++ (>100),++ (from >30 to 100),83.3 to 833 mL/min/kg
"COC[C@@H]1C[C@@H]2CNCCN2c2cc(Cl)cc(Cl)c2O1 [Example 52, (4aR,6S)-8,10-Dichloro-6-(methoxymethyl)-2,3,4,4a,5,6-hexahydro-1H-pyrazino[2,1-d][1,5]benzoxazepine]",20 to 200 nM,> 70%,+++ (>100),++ (from >30 to 100),< 83.3 mL/min/kg
"COC[C@@H]1C[C@@H]2CNCCN2c2c(cc(F)c(F)c2F)O1.Cl [Example 47, (4aR,6S)-9,10,11-Trifluoro-6-(methoxymethyl)-2,3,4,4a,5,6-hexahydro-1H-pyrazino[2,1-d][1,5]benzoxazepine hydrochloride]",20 to 200 nM,> 70%,+++ (>100),+++ (>100),< 83.3 mL/min/kg
"COC[C@@H]1C[C@@H]2CNCCN2c2c(F)c(F)cc(Cl)c2O1.Cl [Example 16, (4aR,6S)-8-Chloro-10,11-difluoro-6-(methoxymethyl)-2,3,4,4a,5,6-hexahydro-1H-pyrazino[2,1-d][1,5]benzoxazepine hydrochloride]",< 20 nM,> 70%,+++ (>100),+++ (>100),< 83.3 mL/min/kg
"COC[C@@H]1C[C@@H]2CNCCN2c2c(ccc(F)c2F)O1.Cl [Example 21, (4aR,6S)-10,11-Difluoro-6-(methoxymethyl)-2,3,4,4a,5,6-hexahydro-1H-pyrazino[2,1-d][1,5]benzoxazepine hydrochloride]",20 to 200 nM,30 to 50%,++ (from >30 to 100),++ (from >30 to 100),< 83.3 mL/min/kg
"COC[C@H]1C[C@@H]2CNCCN2c2cccc(Cl)c2O1.O=C(O)C(F)(F)F [Example 2, (4aR,6R)-8-Chloro-6-(methoxymethyl)-2,3,4,4a,5,6-hexahydro-1H-pyrazino[2,1-d][1,5]benzoxazepine; 2,2,2-trifluoroacetic acid]",20 to 200 nM,50 to 70%,+++ (>100),+++ (>100),< 83.3 mL/min/kg
"COC[C@H]1C[C@@H]2CNCCN2c2cc(F)cc(C(F)F)c2O1.Cl [Example 32, (4aR,6R)-8-(Difluoromethyl)-10-fluoro-6-(methoxymethyl)-2,3,4,4a,5,6-hexahydro-1H-pyrazino[2,1-d][1,5]benzoxazepine hydrochloride]",200 to 1000 nM,> 70%,++ (from >30 to 100),++ (from >30 to 100),< 83.3 mL/min/kg
"Cc1ccc2c(c1F)O[C@H](CO)C[C@@H]1CNCCN21 [Example 39, [(4aR,6S)-8-Fluoro-9-methyl-2,3,4,4a,5,6-hexahydro-1H-pyrazino[2,1-d][1,5]benzoxazepin-6-yl]methanol]",20 to 200 nM,50 to 70%,++ (from >30 to 100),++ (from >30 to 100),< 83.3 mL/min/kg
"COC[C@@H]1C[C@@H]2CNCCN2c2cc(F)cc(F)c2O1.Cl [Example 11, (4aR,6S)-8,10-Difluoro-6-(methoxymethyl)-2,3,4,4a,5,6-hexahydro-1H-pyrazino[2,1-d][1,5]benzoxazepine hydrochloride]",20 to 200 nM,> 70%,+++ (>100),++ (from >30 to 100),< 83.3 mL/min/kg
"COC[C@@H]1C[C@@H]2CNCCN2c2cc(F)cc(C(F)(F)F)c2O1.Cl [Example 22, (4aR,6S)-10-Fluoro-6-(methoxymethyl)-8-(trifluoromethyl)-2,3,4,4a,5,6-hexahydro-1H-pyrazino[2,1-d][1,5]benzoxazepine hydrochloride]",< 20 nM,> 70%,+++ (>100),++ (from >30 to 100),< 83.3 mL/min/kg
"COC[C@@H]1C[C@@H]2CNCCN2c2c(F)c(F)cc(F)c2O1.O=C(O)/C=C/C(=O)O [Example 18, (4aR,6S)-8,10,11-Trifluoro-6-(methoxymethyl)-2,3,4,4a,5,6-hexahydro-1H-pyrazino[2,1-d][1,5]benzoxazepine; fumaric acid]",20 to 200 nM,> 70%,+++ (>100),+++ (>100),< 83.3 mL/min/kg
